Source: patent US20220144838A1, “Compounds as Inhibitors of Macrophage Migration Inhibitory Factor” (NANJING IMMUNOPHAGE BIOTECH CO., LTD., priority 2019, published 2022)
Like-named read-outs stand apart in the source and are kept apart here.

Molecular target: T1, MIF (Homo sapiens, UniProt P14174)
T1 sequence (P14174 2-115 limits assumed): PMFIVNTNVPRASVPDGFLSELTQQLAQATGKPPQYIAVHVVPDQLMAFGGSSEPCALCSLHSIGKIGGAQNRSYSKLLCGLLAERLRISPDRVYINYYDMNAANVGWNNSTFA
Assay: MIF tautomerase assay using pHPP as substrate
Assay type: biochemical
Details: mean of multiple test results
Description: Tautomerase Assay Using pHPP as Substrate
This assay measured MIF's tautomerase activity in a cell-free system and was based on the determination of initial rates of the MIF-catalyzed conversion of the ketonic into the enolic tautomer of pHPP. This was achieved by spectrophotometric quantification of the complex between borate and the product of the reaction (enolic pHPP). The substrate was prepared by conversion of the enolic pHPP into its ketonic form. To achieve this, 0.5 M pHPP in methanol was diluted 10-fold with 50 mM sodium acetate buffer at pH 6.0, and then the suspension was shaken for 24 h at room temperature in darkness, and finally stored at 4° C. for not more than 1 week, with 5 min sonication being recommended before use.
Assays were performed in small-volume clear-bottom black 96 or 384-well polystyrene plates (Greiner Bio-One). First, 2 μL of the enzyme solution containing 6 nM of MIF in DPBS, 0.025% w/v BSA, and 300 μM CHAPS was dispensed onto sample and negative control wells using Multidrop Combi with metallic tip cassettes (Thermo Fisher Scientific) previously treated with Sigmacote. Then, 2 μL of the same buffer without MIF was dispensed onto positive control wells. The reaction was started by addition of the following to all wells: 2 μL of substrate solution containing 3 mM ketonic pHPP in 200 mM boric acid, 25 mM sodium phosphate, 0.025% w/v BSA, and 300 μM CHAPS at pH 6.0. In order to remove bubbles, the plate was centrifuged in an Allegra 25R centrifuge (Beckman Coulter, Inc., Brea, Calif.) at 1000 rpm for 2 min at room temperature. Then, the plate was read in an EnVision. Final concentrations of enzyme and substrate were 3 nM and 1.5 mM, respectively. Initial rates were calculated for each well as the slope of the absorbance progress curve.
All exemplified compounds (Examples 1-230) were tested in the MIF tautomerase assay or a similar assay described above. The data mentioned below represents a mean pIC50 value of multiple test results. It is understood that the data illustrated below may have reasonable variation depending on the specific conditions and procedures used by the person conducting the testing.

[1] = inhibition of the MIF enzyme in vitro, read-out: Tautomerase Inhibition pIC50 (converted)

Row | SMILES | IC50 [1] [nM] | IC50 (FIGS. 1-5, read-out: pIC50 MIF tautomerase activity (converted)) [nM]
1 | O=C(O)Cn1cnc2c(-n3c(CO)nc4ccccc43)nc(N3CCN(c4ccc(O)cc4)CC3)nc21 [Example 29, 2-(6-(2-(hydroxymethyl)-1H-benzo[d]imidazol-1-yl)-2-(4-(4-hydroxyphenyl)piperazin-1-yl)-9H-purin-9-yl)acetic acid] | > 10000 | –
2 | COc1cc(-n2cnc3c(N)nc(N4CCN(c5ccc(O)cc5)CC4)nc32)ccn1 [Example 82, 4-(4-(6-amino-9-(2-methoxypyridin-4-yl)-9H-purin-2-yl)piperazin-1-yl)phenol] | 100 to 977 | –
3 | CC(C(=O)O)n1cnc2c(-n3ncc4ccccc43)nc(N3CCN(c4ccc(O)cn4)CC3)nc21 (stereo not shown) [Example 145, 2-(2-(4-(5-hydroxypyridin-2-yl)piperazin-1-yl)-6-(1H-indazol-1-yl)-9H-purin-9-yl)propanoic acid] | 10 to 97.7 | –
4 | O=C(O)Cn1cnc2c(-n3ncc4ccc(CO)cc43)nc(N3CCN(c4ccc(O)cc4)CC3)nc21 [Example 105, 2-(6-(6-(hydroxymethyl)-1H-indazol-1-yl)-2-(4-(4-hydroxyphenyl)piperazin-1-yl)-9H-purin-9-yl)acetic acid] | 100 to 977 | –
5 | N#Cc1nn(-c2nc(N3CCN(c4ccc(O)cc4)CC3)nc3c2ncn3CC(=O)O)c2ccccc12 [Example 134, 2-(2-(4-(4-hy-droxyphenyl)piperazin-1-yl)-6-(3-cyano-1H-indazol-1-yl)-9H-purin-9-yl)acetic acid] | 10 to 97.7 | –
6 | Nc1nc(N2CCN(c3ccc(O)cc3)CC2)nc2c(-c3ccncc3)c[nH]c12 [Example 226, 4-(4-(4-amino-7-(pyridin-4-yl)-5H-pyrrolo[3,2-d]pyrimidin-2-yl)piperazin-1-yl)phenol] | > 10000 | –
7 | CNC(=O)Cn1cnc2c(-n3cnc4ccccc43)nc(N3CCN(c4ccc(O)cc4)CC3)nc21 [Example 42, 2-(6-(1H-benzo[d]imidazol-1-yl)-2-(4-(4-hydroxyphenyl)piperazin-1-yl)-9H-purin-9-yl)-N-methylacetamide] | 1000 to 9770 | –
8 | Nc1ccc(N2CCN(c3nc(N)c4ncn(-c5ccncc5)c4n3)CC2)nc1 [Example 190, 2-(4-(5-aminopyridin-2-yl)piperazin-1-yl)-9-(pyridin-4-yl)-9H-purin-6-amine] | > 10000 | –
9 | Nc1nc(N2CC(O)(c3nccs3)C2)nc2c1ncn2-c1ccncc1 [Example 201, 1-(6-amino-9-(pyridin-4-yl)-9H-purin-2-yl)-3-(thiazol-2-yl)azetidin-3-ol] | > 10000 | –
10 | Nc1nc(N2CCN(c3ccc(CO)cn3)CC2)nc2c1ncn2-c1ccncc1 [Example 196, (6-(4-(6-amino-9-(pyridin-4-yl)-9H-purin-2-yl)piperazin-1-yl)pyridin-3-yl)methanol] | > 10000 | –
11 | O=C1c2ccccc2C(=O)N1CCn1cnc2c(-n3ncc4ccccc43)nc(N3CCN(c4ccc(O)cc4)CC3)nc21 [Example 136, 2-(2-(2-(4-(4-hydroxyphenyl)piperazin-1-yl)-6-(1H-indazol-1-yl)-9H-purin-9-yl)ethyl)isoindoline-1,3-dione] | 1000 to 9770 | –
12 | Oc1ccc(N2CCN(c3nc(-n4ncc5ccccc54)c4ncn(C5CCOC5)c4n3)CC2)nc1 (stereo not shown) [Example 228, 6-(4-(6-(1H-indazol-1-yl)-9-(tetrahydrofuran-3-yl)-9H-purin-2-yl)piperazin-1-yl)pyridin-3-ol] | 100 to 977 | –
13 | OCCCn1cnc2c(-n3ncc4ccccc43)nc(N3CCN(c4ccc(O)cc4)CC3)nc21 [Example 23, 4-(4-(9-(3-hydroxypropyl)-6-(1H-indazol-1-yl)-9H-purin-2-yl)piperazin-1-yl)phenol] | 100 to 977 | –
14 | Nc1nc(N2CCC(n3cc(C(=O)O)cn3)CC2)nc2c1ncn2-c1ccncc1 [Example 195, 1-(1-(6-amino-9-(pyridin-4-yl)-9H-purin-2-yl)piperidin-4-yl)-1H-pyrazole-4-carboxylic acid] | > 10000 | –
15 | N#Cc1ccc(-n2cnc3c(N)nc(N4CCN(c5ccc(O)cc5)CC4)nc32)cc1 [Example 74, 4-(6-amino-2-(4-(4-hydroxyphenyl)piperazin-1-yl)-9H-purin-9-yl)benzonitrile] | 100 to 977 | –
16 | CC(C)(C)OC(=O)Cn1cnc2c(-n3nnc4c(C(=O)O)cccc43)nc(N3CCN(c4ccc(O)cc4)CC3)nc21 [Example 100, 1-(9-(2-(tert-butoxy)-2-oxoethyl)-2-(4-(4-hydroxyphenyl)piperazin-1-yl)-9H-purin-6-yl)-1H-benzo[d][1,2,3]triazole-4-carboxylic acid] | 10 to 97.7 | ≤ 100
17 | Cc1cc(-n2cnc3c(C)nc(N4CCC(O)(c5ccc(O)cc5)CC4)nc32)ccn1 [Example 203, 4-(4-hydroxyphenyl)-1-(6-methyl-9-(2-methylpyridin-4-yl)-9H-purin-2-yl)piperidin-4-ol] | > 10000 | –
18 | OCCn1cnc2c(N[C@@H]3CCc4ccccc43)nc(N3CCN(c4ccc(O)cc4)CC3)nc21 [Example 6, (R)-4-(4-(6-((2,3-dihydro-1H-inden-1-yl)amino)-9-(2-hydroxyethyl)-9H-purin-2-yl)piperazin-1-yl)phenol] | > 10000 | –
19 | Oc1ccc(C2(O)CCN(c3nc(N4CCCCC4)c4ncn(-c5ccncc5)c4n3)CC2)cc1 [Example 211, 1 4-(4-hydroxyphenyl)-1-(6-(piperidin-1-yl)-9-(pyridin-4-yl)-9H-purin-2-yl)piperidin-4-ol] | 1000 to 9770 | –
20 | Oc1ccc(N2CCN(c3ncc4ncn(-c5ccncc5)c4n3)CC2)cc1 [Example 184, 4-(4-(9-(pyridin-4-yl)-9H-purin-2-yl)piperazin-1-yl)phenol] | 10 to 97.7 | –
21 | O=C(O)Cn1cnc2c(-n3ncc4c(Cl)cccc43)nc(N3CCN(c4ccc(O)cc4)CC3)nc21 [Example 106, 2-(6-(4-chloro-1H-indazol-1-yl)-2-(4-(4-hydroxyphenyl)piperazin-1-yl)-9H-purin-9-yl)acetic acid] | 100 to 977 | –
22 | Cc1cc(N2CCN(c3nc(-n4ncc5ccccc54)c4ncn(CCO)c4n3)CC2)ccc1O [Example 153, 4-(4-(9-(2-hydroxyethyl)-6-(1H-indazol-1-yl)-9H-purin-2-yl)piperazin-1-yl)-2-methylphenol] | 1000 to 9770 | –
23 | O=C(O)CCCCn1cnc2c(-n3ncc4ccccc43)nc(N3CCN(c4ccc(O)cn4)CC3)nc21 [Example 149, 5-(2-(4-(5-hydroxypyridin-2-yl)piperazin-1-yl)-6-(1H-indazol-1-yl)-9H-purin-9-yl)pentanoic acid] | 10 to 97.7 | –
24 | OC1(c2cn[nH]c2)CN(c2ncc3ncn(-c4ccncc4)c3n2)C1 [Example 200, 3-(1H-pyrazol-4-yl)-1-(9-(pyridin-4-yl)-9H-purin-2-yl)azetidin-3-ol] | > 10000 | –
25 | O=C(O)Cn1cnc2c(-n3ncc4ccccc43)nc(N3CCN(c4ccc(O)nc4)CC3)nc21 [Example 129, 2-(2-(4-(6-hydroxypyridin-3-yl)piperazin-1-yl)-6-(1H-indazol-1-yl)-9H-purin-9-yl)acetic acid] | > 10000 | –
26 | O=C(O)C(CC1CC1)n1cnc2c(-n3ncc4ccccc43)nc(N3CCN(c4ccc(O)cn4)CC3)nc21 (stereo not shown) [Example 151, 3-cyclopropyl-2-(2-(4-(5-hydroxypyridin-2-yl)piperazin-1-yl)-6-(1H-indazol-1-yl)-9H-purin-9-yl)propanoic acid] | 10 to 97.7 | –
27 | Oc1ccc(N2CCN(c3nc(N4CCc5ccccc54)c4ncn(-c5cccnc5)c4n3)CC2)cc1 [Example 39, 4-(4-(6-(indolin-1-yl)-9-(pyridin-3-yl)-9H-purin-2-yl)piperazin-1-yl)phenol] | 100 to 977 | –
